Laboratory results from patent US7144893B2, “4-aryl quinols and analogs thereof as therapeutic agents” (Cancer Research Technology Limited, priority 2001, dated 2006).
Converted amounts (≈) assume the structure as drawn.

What was measured:
[1] = tested on: A549 lung adenocarcinoma; assay: Growth inhibitory assay (MTT, 72 hr); assay type: cell-based; conditions: Homo sapiens, 72 hr exposure
Experimental: (§1) Compounds were prepared as 10 mM top stocks, dissolved in DMSO, and stored at 4° C., protected from light, for a maximum period of 4 weeks. Human derived cell lines (HCT 116, HT29 colon carcinoma; MCF-7 (ER+), MDA 468 (ER−) breast carcinoma; A549 lung adenocarcinoma) were routinely cultivated at 37° C. in an atmosphere of 5% CO2 in RPMI 1640 medium supplemented with 2 mM L-glutamine and 10% fetal calf serum and subcultured twice weekly to maintain continuous logarithmic growth. Cells were seeded into 96-well microtiter plates at a density of 5×10^3 per well and allowed 24 hr to adhere before drugs were introduced (final concentration 0.1 nM–100 μM, n=8). Serial drug dilutions were prepared in medium immediately prior to each assay. At the time of drug addition and following 72 hr exposure, MTT was added to each well (final concentration 400 µg/mL). Incubation at 37° C. for 4 hr allowed reduction of MTT by mitochondrial dehydrogenase to an insoluble formazan product. Well contents were aspirated and formazan solubilized by addition of DMSO:glycine buffer (pH 10.5) (4:1). Absorbance was measured using an Anthos Labtec systems plate reader at 550 nm, and used as a measure of cell viability; thus cell growth or drug toxicity was determined.

[2] = tested on: HCT 116 colon carcinoma; assay: Growth inhibitory assay (MTT, 72 hr); assay type: cell-based; conditions: Homo sapiens, 72 hr exposure
Experimental: as §1

[3] = tested on: HT29 colon carcinoma; assay: Growth inhibitory assay (MTT, 72 hr); assay type: cell-based; conditions: Homo sapiens, HT-29, 72 hr exposure
Experimental: as §1

[4] = tested on: MCF-7 (ER+) breast carcinoma; assay: Growth inhibitory assay (MTT, 72 hr); assay type: cell-based; conditions: Homo sapiens, MCF7, 72 hr exposure
Experimental: as §1

[5] = tested on: MDA 468 (ER−) breast carcinoma; assay: Growth inhibitory assay (MTT, 72 hr); assay type: cell-based; conditions: Homo sapiens, 72 hr exposure
Experimental: as §1

[6] = tested on: human renal tumor xenograft RXF 944LX; assay: In vivo antitumor activity, renal tumor xenograft; conditions: for DT (tumor doubling time) / T/C (optimal test/control) / GD (growth delay): 15 mg/kg i.p.
Experimental: Animals. Six to eight weeks old outbred nude mice of NMRI genetic background were used for all experiments. The animals were bred and raised in animal facilities in Freiburg, Germany and housed in Macrolon™ cages. The mice were kept under laminar air flow on natural day light cycles. Diet (Altromin, Lage, Germany) and water were provided ad libitum and room temperature (25+/−2° C.) as well as humidity (60+/−10%) were maintained. The experiments were conducted essentially according to the UKCCCR guidelines under a project license approved by the German Federal Government (Regierungspräsidium Freiburg). The gender of the mice was chosen according to the gender of the patients from which the tumors were originally derived.
Tumors and Data Evaluation. For the experiments, three subcutaneously (s.c.) growing renal human tumor xenograft models from the Freiburg tumor panel were selected (RXF 944LX, RXF 393, and RXF 1220). All renal cell carcinomas were hypernephromas. For the experiments, the latter were engrafted from tumors in serial passage growing s.c. in nude mice. Fragments of approximately 25 mg were implanted s.c. in both flanks of the animals. When the tumors were clearly palpable and had reached a volume of 100–200 mm^3, animals (6–12 tumors) were randomly allocated into treatment groups. Tumor growth was followed twice weekly by serial caliper measurement. Tumor volumes were calculated using the formula length×width^2/2, where length (a) is the largest dimension and width (b) the smallest dimension perpendicular to the length (a×b^2/2) (see, e.g., Geran et al., 1972).
Data evaluation was performed using software by plotting relative tumor volume against time. Relative tumor volumes were calculated for each single tumor by dividing the tumor volume on day X by the tumor volume on day 0 at the time of randomization. Tumor doubling time of test and control groups was defined as the period required to double the initial tumor volume (200%). Growth curves were analyzed in terms of maximal tumor inhibition (treated/control, T/C, calculated as median tumor weight of treated animals divided by median tumor weight of control animals times 100), growth delay (the difference in days to double the initial tumor volume of the test minus the control groups). Median relative tumor volumes of each treatment group were compared to those of the control group. Human tumors growing s.c. in nude mice were treated intraperitoneally (i.p.) with doses of 15 and 10 mg/kg drug either on days 1 and 2; on days 1 and 5; on days 1 and 8; or on days 1, 5 and 8.
The drug doses and treatment schedules used, were determined as being tolerated in non-tumor bearing nude mice prior to initiation of tumor experiments.

[7] = tested on: Mycobacterium tuberculosis H37Rv (ATCC 27294); assay: Microplate Alamar Blue Assay (MABA), TAACF primary screening; assay type: cell-based; conditions: lowest concentration effecting a reduction in fluorescence of 90% relative to controls
Excerpt: Compounds were submitted to the Tuberculosis Antimicrobial Acquisition and Coordinating Facility (TAACF) for testing as antimycobacterial drugs.
Compounds were subjected to in vitro evaluation for antimycobacterial activity.
See, for example, Collins et al., 1997.

[8] = tested on: MCF-7 wt and MCF-7/adr (breast cancer); assay: Potency in MCF-7 wt and MCF-7/adr; assay type: cell-based
[9] = tested on: MCF-7 (wt p53) and MDS 468 (mut p53) (breast cancer); assay: Potency in MCF-7 (wt p53) and MDS 468 (mut p53); assay type: cell-based
[10] = tested on: ZR^75 clones expressing different levels of epidermal growth factor receptor (EGFR); assay: Activity against ZR75 clones with different EGFR levels; assay type: cell-based
[11] = tested on: apoptotic events; assay: Induction of apoptotic events; assay type: cell-based; conditions: after lag phase (48 h)
[12] = tested on: cellular glutathione; assay: Cellular glutathione; assay type: cell-based
[13] = tested on: p53; assay: p53 regulation in cancer cells; assay type: cell-based; conditions: MCF-7 (breast cancer) and HCT 116 (colon cancer)
[14] = tested on: human renal tumor xenograft RXF 393; assay: In vivo antitumor activity, renal tumor xenograft; conditions: for DT (tumor doubling time) / T/C (optimal test/control): days 1, 5; for GD (growth delay): days 1, 5, difference in days to double initial tumor volume; for BWC (maximal body weight change): days 1, 5, model induces cachexia
[15] = tested on: human renal tumor xenograft RXF 1220; assay: In vivo antitumor activity, renal tumor xenograft; conditions: 15 mg/kg i.p.

Compound: O=C1C=CC(O)(c2nc3ccccc3s2)C=C1 [Q05, 4-(Benzothiazol-2-yl)-4-hydroxy-2,5-cyclohexadien-1-one]
- IC50 [1]: 2350 nM
- IC50 [2]: 40 nM
- IC50 [3]: 380 nM
- IC50 [4]: 350 nM
- IC50 [5]: 790 nM
- DT (tumor doubling time) ([6]; days 1, 2): 4.1
- T/C (optimal test/control) ([6]; days 1, 2): 27
- GD (growth delay) ([6]; days 1, 2, difference in days to double initial tumor volume): 2.9
- DT (tumor doubling time) ([6]; days 1, 8): 4.2
- T/C (optimal test/control) ([6]; days 1, 8): 43
- GD (growth delay) ([6]; days 1, 8, difference in days to double initial tumor volume): 2.3
- toxic death in treatment group ([6]; FIG. 2, six animals per group): 1/6
- T/C ([6]; FIG. 2, six animals per group, 11–12 tumors per group): 43%
- T/C ([6]; FIG. 3, three animals per group): 27%
- MIC [7]: 0.78 µg/mL (≈ 3.21 µM)
- relative potency MCF-7 wt and MCF-7/adr [8]: equi-potent
- relative potency MCF-7 (wt p53) and MDS 468 (mut p53) [9]: equi-potent
- relative activity against ZR75 clones [10]: equi-active
- apoptosis induction [11]: induces apoptotic events
- effect on cellular glutathione [12]: depletes cellular glutathione
- effect on p53 [13]: up-regulates p53
- DT (tumor doubling time) ([14]; 10 mg/kg i.p.): 3.0
- T/C (optimal test/control) ([14]; 10 mg/kg i.p.): 63
- GD (growth delay) ([14]; 10 mg/kg i.p.): 0.9
- BWC (maximal body weight change) ([14]; 10 mg/kg i.p.): −16
- DT (tumor doubling time) ([14]; 15 mg/kg i.p.): 2.6
- T/C (optimal test/control) ([14]; 15 mg/kg i.p.): 56
- GD (growth delay) ([14]; 15 mg/kg i.p.): 0.5
- BWC (maximal body weight change) ([14]; 15 mg/kg i.p.): −19
- DT (tumor doubling time) ([15]; days 1, 5, 8): 5.3
- T/C (optimal test/control) ([15]; days 1, 5, 8): 66
- GD (growth delay) ([15]; days 1, 5, 8, difference in days to double initial tumor volume): 2.2
- BWC (maximal body weight change) ([15]; days 1, 5, 8, model induces cachexia): −20
